Laboratory results reported in US4478840A, “Appetite suppressing compositions and methods” (E. I. Du Pont de Nemours and Company, priority 1983, dated 1984).

Assays:
rats = details: sweetened Enfamil baby formula; subcutaneous; cited from earlier work
[1] = Analgesic/narcotic antagonist property; details: stated in words, no test described
Female CF1 mice = test: Anorexia test, oral dose route (milk consumption of fasted mice); format: in vivo, mouse; details: for ED50: Mus musculus, oral, female CF1 mice fasted 17 to 21 hours, dose at which treated mice would consume 50% as much milk as controls, milk 1/2 h after dose, 30 min count; for food intake in mice: summary statement on Table I
Method: Female CF1 mice, which had been fasted for 17 to 21 hours, were dosed orally with the test compound (ten or more mice per dose). One-half hour later, each mouse was transferred to an individual compartment (13.3 cm×12.7 cm×12.7 cm) with a 0.64 cm×0.64 cm wire mesh floor. Inside each compartment was a brass bar (13 cm×1.2 cm×1.2 cm) in the top of which were ten shallow, round spot depressions (0.8 cm diameter). Each depression contained 0.05 ml of 50% sweetened condensed milk.
Thirty minutes after the mice were transferred into the compartments, the number of milk spots each mouse had consumed was counted. Fractions of spots consumed also were estimated and counted. The percent anorexigenic effect was estimated by comparison of the mean number of spots of milk consumed per mouse at a given dose with the mean number of spots consumed per vehicle-treated control mouse. Dose-response curves were plotted and from these the ED50%, the dose at which treated mice would be expected to consume 50% as much milk as control mice, was calculated.

Male CF1 mice = test: Anorexia test, subcutaneous dose route (milk consumption of fasted mice); format: in vivo; details: Mus musculus, sc, male CF1 mice fasted 17 to 21 hours, dose at which treated mice would consume 50% as much milk as controls, milk 7 1/2 to 15 min after dose, 10 min count
Method: Male CF1 mice, which had been fasted for 17 to 21 hours, were dosed subcutaneously with the test compound (20 mice per dose) and placed into an individual compartment (13.3 cm×12.7 cm×12.7 cm) with a 0.64 cm×0.64 cm wire mesh floor. 71/2 to 15 minutes later a black Lucite bar (13 cm×1.2 cm×1.2 cm) in the top of which were ten shallow round spot depressions (0.8 cm diameter) was inserted into each compartment. Each depression contained 0.05 ml of 50% sweetened condensed milk.
Ten minutes after the milk was presented to the mice, the number of milk spots each mouse had consumed was counted. Fractions of spots consumed also were estimated and counted. Dose-response curves were plotted and from these the ED50%, the dose at which treated mice would be expected to consume 50% as much milk as control mice, was calculated.

mammals = details: oral; cited from earlier work
food-deprived rats = details: cited from earlier work
food-deprived mice = details: cited from earlier work

SMILES	fluid intake of rats (rats)	ED50 (Female CF1 mice) [mg/kg]	ED50 (Male CF1 mice) [mg/kg]	also measured
C=CCN1CC[C@]23c4c5ccc(O)c4O[C@H]2[C@@H](O)C=C[C@H]3[C@H]1C5 [nalorphine, N-allylnormorphine]	reduced	–	–	–
Oc1ccc2c3c1O[C@H]1CCC[C@@]4(O)[C@@H](C2)N(CC2CCC2)CC[C@]314 [17-cyclobutylmethyl-4,5α-epoxymorphinan-3,14-diol]	–	–	–	analgesic/narcotic antagonist property [1]: mixed analgesic/narcotic antagonist
Cl.Oc1ccc2c3c1O[C@H]1CCC[C@@]4(O)[C@@H](C2)N(CC2CCC2)CC[C@]314 [Example 2, 17-Cyclobutylmethyl-4,5α-epoxymorphinan-3,14-diol, Hydrochloride]	–	84	3.2	food intake in mice (Female CF1 mice): decreased food intake
Cl.Oc1ccc2c3c1O[C@H]1CCC[C@@]4(O)[C@@H](C2)N(CC2CC2)CC[C@]314 [Example 1, 17-Cyclopropylmethyl-4,5α-epoxymorphinan-3,14-diol, Hydrochloride]	–	2.5	–	food intake in mice (Female CF1 mice): decreased food intake
CCNC(C)Cc1cccc(C(F)(F)F)c1 (centres unmarked) [Fenfluramine]	–	13.5	7.6	–
O=C1CC[C@@]2(O)[C@H]3Cc4ccc(O)c5c4[C@@]2(CCN3CC2CC2)[C@H]1O5 [Naltrexone, (-)-17-cyclopropylmethyl-4,5α-epoxy-3,14-dihydroxymorphinan-6-one]	reduced	3	0.4	appetite suppression (mammals): appetite suppression
C=CCN1CC[C@]23c4c5ccc(O)c4O[C@H]2C(=O)CC[C@@]3(O)[C@H]1C5 [naloxone, N-allyl-14-hydroxy-7,8-dihydronormorphinone]	reduced	–	–	eating by food-deprived rats (food-deprived rats): suppresses eating; eating by food-deprived mice (food-deprived mice): not by food-deprived mice
Oc1ccc2c3c1O[C@H]1CCC[C@@]4(O)[C@@H](C2)N(CC2CC2)CC[C@]314 [17-cyclopropylmethyl-4,5α-epoxymorphinan-3,14-diol]	–	–	–	analgesic/narcotic antagonist property [1]: narcotic antagonist
